Results on 13 compounds are retold here after patent publication US20230158025A1 (UNIVERSITY OF UTAH RESEARCH FOUNDATION, priority 2020, published 2023).

Where two headings read alike, the source gives them in different places.

The target in data set [1] is recombinant human GALK1 (Homo sapiens, UniProt P51570). As to the kind of experiment: hGALK1 biochemical activity assay (Kinase-Glo Plus, ATP depletion). The method, boiled down: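 Turnover is measured as ATP depletion by Kinase-Glo Plus luminescence after a 1 h room-temperature reaction. Compounds span 11 concentrations, 57.4 μM–0.97 nM, in final 20 mM HEPES pH 8.0 with 5 mM MgCl2. The substrate solution held 35 μM ATP; the added solution held 5 nM human or mouse GALK1 and 100 μM galactose.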
Sequence of recombinant human GALK1 (P51570 whole entry): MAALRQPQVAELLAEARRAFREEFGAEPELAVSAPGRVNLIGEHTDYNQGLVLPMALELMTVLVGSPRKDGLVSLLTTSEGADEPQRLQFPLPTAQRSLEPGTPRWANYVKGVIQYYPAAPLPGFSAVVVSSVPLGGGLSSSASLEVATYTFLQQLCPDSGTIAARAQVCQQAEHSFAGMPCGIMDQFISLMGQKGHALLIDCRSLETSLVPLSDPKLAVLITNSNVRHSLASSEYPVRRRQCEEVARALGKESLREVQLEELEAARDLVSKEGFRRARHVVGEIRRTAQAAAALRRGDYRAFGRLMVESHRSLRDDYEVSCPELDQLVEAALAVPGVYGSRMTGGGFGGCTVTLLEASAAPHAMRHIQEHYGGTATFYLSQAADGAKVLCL
Background: Kinase-Glo measures the ATP left after a reaction by luminescence.

Data set [2] deals with recombinant mouse GALK1 (Mus musculus, UniProt Q9R0N0). The data set can be described thus: mGALK1 biochemical activity assay (Kinase-Glo Plus, ATP depletion). The method, boiled down: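 Recombinant GALK1 (5 nM) with 100 μM galactose; GALK1 turnover read as ATP depletion by Kinase-Glo Plus luminescence. Reaction ran 1 h at room temperature before detection reagent was added.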
Sequence of recombinant mouse GALK1 (Q9R0N0 whole entry): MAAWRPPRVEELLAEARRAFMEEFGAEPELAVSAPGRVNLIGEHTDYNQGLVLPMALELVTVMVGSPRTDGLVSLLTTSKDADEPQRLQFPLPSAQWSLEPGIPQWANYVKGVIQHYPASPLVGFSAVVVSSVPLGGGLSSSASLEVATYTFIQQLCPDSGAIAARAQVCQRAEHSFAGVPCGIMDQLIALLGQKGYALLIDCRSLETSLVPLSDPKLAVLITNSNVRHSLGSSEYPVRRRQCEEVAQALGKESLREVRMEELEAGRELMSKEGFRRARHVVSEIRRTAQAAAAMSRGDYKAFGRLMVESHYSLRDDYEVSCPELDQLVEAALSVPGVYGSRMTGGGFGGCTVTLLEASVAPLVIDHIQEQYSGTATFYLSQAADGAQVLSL

The nature of data set [3]: PAMPA permeability. The following applies: PAMPA.
Data set [4] in a line: aqueous kinetic solubility. The following applies: aqueous kinetic solubility.
Data set [5] in a line: rat microsomal stability (RLM). The following applies: microsomal stability half-life.
Setting [6] is: Tables 2-15, 35 μM ATP, 100 μM galactose, 1 h, bracketed figure after some values (e.g. −1.2) is undefined and not reported.
Where [7] appears, read: recombinant human GALK1, Kinase-Glo Plus ATP depletion.
[8] abbreviates: Tables 2-15, 35 μM ATP, 100 μM galactose, 1 h, bracketed figure after some values is undefined and not reported.
The mark [9] stands for this setting: recombinant mouse GALK1, Kinase-Glo Plus ATP depletion.
Where [10] appears, read: Tables 2-15, 35 μM ATP, 100 μM galactose, 1 h, bracketed figure after some values (e.g. −1.2) is undefined and not reported, read-out: hGALK IC50.
Setting [11] is: Tables 2-15, 35 μM ATP, 100 μM galactose, 1 h, bracketed figure after some values is undefined and not reported, read-out: mGALK IC50.
[12] abbreviates: recombinant mouse GALK1, Kinase-Glo Plus ATP depletion, read-out: mGALK.
Where [13] appears, read: recombinant human GALK1, Kinase-Glo Plus ATP depletion, read-out: hGALK.

As to `CC1=C(C(=O)Nc2cccc(Br)c2)C(c2ccccc2Cl)N=C(Nc2nc3ccccc3o2)N1` (stereo not shown) [Compound 147, 2-(benzo[d]oxazol-2-ylamino)-N-(3-bromophenyl)-4-(2-chlorophenyl)-6-methyl-1,4-dihydropyrimidine-5-carboxamide], in data set [1] (setting [6]), the “hGALK IC50” value is “inactive”. Moreover, the “hGALK (μM)” value in data set [1] (setting [7]) is “in- active”. The “mGALK IC50” value in data set [2] (setting [8]) was “inactive”. For the same compound, the “mGALK (μM)” value in data set [2] (setting [9]) is reported as “in- active”. The “Perm. (1 × 10^−6 cm/sec)” value in data set [3] is <1.8 1 × 10^−6 cm/sec. For the same compound, the “Sol.” value in data set [4] is <1 µg/mL. In data set [5], the “Metab. Stabil. (m)” value was >30 m.

Turning to `CC1=C(C(=O)Nc2ccc(F)cc2)C(c2ccccc2Cl)N=C(Nc2nc3ccccc3o2)N1` (stereo not shown) [Compound 148, 2-(benzo[d]oxazol-2-ylamino)-N-(4-fluorophenyl)-4-(2-chlorophenyl)-6-methyl-1,4-dihydropyrimidine-5-carboxamide], the IC50 in data set [1] (setting [10]) was 7.69 µM; in data set [2] (setting [11]), 12.2 µM; in data set [2] (setting [12]), 12.2 µM. Moreover, the “Perm. (1 × 10^−6 cm/sec)” value in data set [3] is 29.4 1 × 10^−6 cm/sec. Further, in data set [4], the “Sol.” value was <1 µg/mL. Also, the “Metab. Stabil. (m)” value in data set [5] is on record as >30 m.

Take `CC1=C(C(=O)Nc2cccnc2)C(c2ccccc2Cl)N=C(Nc2nc3ccccc3o2)N1` (stereo not shown) [Compound 149, 2-(benzo[d]oxazol-2-ylamino)-N-(pyridin-3-yl)-4-(2-chlorophenyl)-6-methyl-1,4-dihydropyrimidine-5-carboxamide]: the IC50 came to 6.85 µM in data set [1] (setting [13]), 12.2 µM in data set [2] (setting [11]) and 12.2 µM in data set [2] (setting [12]). In data set [3], the “Perm. (1 × 10^−6 cm/sec)” value is 513.0 1 × 10^−6 cm/sec. Moreover, the “Sol.” value in data set [4] was <1 µg/mL. In addition, in data set [5], the “Metab. Stabil. (m)” value is 20 m.

Consider `CC1=C(C(=O)Nc2ccc(Br)cc2)C(c2ccccc2Cl)N=C(Nc2nc3ccccc3o2)N1` (stereo not shown) [Compound 150, 2-(benzo[d]oxazol-2-ylamino)-N-(4-bromophenyl)-4-(2-chlorophenyl)-6-methyl-1,4-dihydropyrimidine-5-carboxamide], for which the IC50 in data set [1] (setting [10]) amounted to 9.68 µM; in data set [1] (setting [13]), 9.68 µM; in data set [2] (setting [11]), 15.3 µM; in data set [2] (setting [12]) it was 15.3 µM. The “Perm. (1 × 10^−6 cm/sec)” value in data set [3] is <14.9 1 × 10^−6 cm/sec. Further, the “Sol.” value in data set [4] is <1 µg/mL. Besides, the “Metab. Stabil. (m)” value in data set [5] is listed as >30 m.

`CC1=C(C(=O)N(C)c2ccccc2)C(c2ccccc2Cl)N=C(Nc2nc3ccccc3o2)N1` (stereo not shown) [Compound 151, 2-(benzo[d]oxazol-2-ylamino)-4-(2-chlorophenyl)-N,6-dimethyl-N-phenyl-1,4-dihydropyrimidine-5-carboxamide]: the “hGALK (μM)” value in data set [1] (setting [7]) was “in- active”. The “mGALK (μM)” value in data set [2] (setting [9]) was “in- active”. In data set [3], the “Perm. (1 × 10^−6 cm/sec)” value is on record as 203.1 1 × 10^−6 cm/sec. Besides, in data set [4], the “Sol.” value is <1 µg/mL. The “Metab. Stabil. (m)” value in data set [5] came out at 1.176 m.

With `CC1=C(C(=O)Nc2ccc(N(C)C)cc2)C(c2ccccc2Cl)N=C(Nc2nc3ccccc3o2)N1` (stereo not shown) [Compound 152, 2-(benzo[d]oxazol-2-ylamino)-4-(2-chlorophenyl)-N-(4-(dimethylamino)phenyl)-6-methyl-1,4-dihydropyrimidine-5-carboxamide], the IC50 in data set [1] (setting [10]) stood at 7.69 µM; in data set [1] (setting [13]), 7.69 µM; in data set [2] (setting [11]), 13.7 µM; in data set [2] (setting [12]) it was 13.7 µM. Besides, the “Perm. (1 × 10^−6 cm/sec)” value in data set [3] is 15.0 1 × 10^−6 cm/sec. Moreover, in data set [4], the “Sol.” value is <1 µg/mL. The “Metab. Stabil. (m)” value in data set [5] was 11.45 m.

Consider `CC1=C(C(=O)Nc2cccc(Cl)c2)C(c2ccccc2Cl)N=C(Nc2nc3ccccc3o2)N1` (stereo not shown) [Compound 154, 2-(benzo[d]oxazol-2-ylamino)-N-(3-chlorophenyl)-4-(2-chlorophenyl)-6-methyl-1,4-dihydropyrimidine-5-carboxamide], for which, in data set [1] (setting [6]), the “hGALK IC50” value is “inactive”. Moreover, in data set [1] (setting [7]), the “hGALK (μM)” value is recorded as “in- active”. For the same compound, in data set [2] (setting [8]), the “mGALK IC50” value is “inactive”. The “mGALK (μM)” value in data set [2] (setting [9]) is on record as “in- active”. For the same compound, in data set [3], the “Perm. (1 × 10^−6 cm/sec)” value is given as <9.2 1 × 10^−6 cm/sec. In addition, the “Sol.” value in data set [4] is <1 µg/mL. Also, the “Metab. Stabil. (m)” value in data set [5] is reported as >30 m.

Consider `CC1=C(C(=O)Nc2ccccc2CO)C(c2ccccc2Cl)N=C(Nc2nc3ccccc3o2)N1` (stereo not shown) [Compound 156, 2-(benzo[d]oxazol-2-ylamino)-4-(2-chlorophenyl)-N-(2-(hydroxymethyl)phenyl)-6-methyl-1,4-dihydropyrimidine-5-carboxamide], for which the IC50 came to 3.85 µM in data set [1] (setting [13]), 17.2 µM in data set [2] (setting [11]) and 17.2 µM in data set [2] (setting [12]). In data set [3], the “Perm. (1 × 10^−6 cm/sec)” value is reported as 1038.5 1 × 10^−6 cm/sec. In addition, in data set [4], the “Sol.” value is <1 µg/mL. For the same compound, the “Metab. Stabil. (m)” value in data set [5] stood at 7.708 m.

Regarding `CC1=C(C(=O)Nc2ccccc2O)C(c2ccccc2Cl)N=C(Nc2nc3ccccc3o2)N1` (stereo not shown) [Compound 161, 2-(benzo[d]oxazol-2-ylamino)-N-(2-hydroxyphenyl)-4-(2-chlorophenyl)-6-methyl-1,4-dihydropyrimidine-5-carboxamide], the results for the IC50 in data set [1] (setting [10]), in data set [2] (setting [11]) and in data set [2] (setting [12]) were 6.85 µM, 17.2 µM and 17.2 µM, respectively. Also, the “Perm. (1 × 10^−6 cm/sec)” value in data set [3] was 21.1 1 × 10^−6 cm/sec. Moreover, the “Sol.” value in data set [4] was <1 µg/mL. Moreover, in data set [5], the “Metab. Stabil. (m)” value was determined as 17.94 m.

`CC1=C(C(=O)Nc2ccc([N+](=O)[O-])cc2)C(c2ccccc2Cl)N=C(Nc2nc3ccccc3o2)N1` (stereo not shown) [Compound 163, 2-(benzo[d]oxazol-2-ylamino)-4-(2-chlorophenyl)-6-methyl-N-(4-nitrophenyl)-1,4-dihydropyrimidine-5-carboxamide]: the IC50 in data set [1] (setting [10]), in data set [1] (setting [13]), in data set [2] (setting [11]) and in data set [2] (setting [12]) was 3.43 µM each time. The “Perm. (1 × 10^−6 cm/sec)” value in data set [3] is <7.3 1 × 10^−6 cm/sec. For the same compound, the “Sol.” value in data set [4] was <1 µg/mL. Moreover, in data set [5], the “Metab. Stabil. (m)” value was >30 m.

As for `CC1=C(C(=O)Nc2ccc(C(=O)O)nc2)C(c2ccccc2Cl)N=C(Nc2nc3ccccc3o2)N1` (stereo not shown) [Compound 164, 5-(2-(benzo[d]oxazol-2-ylamino)-4-(2-chlorophenyl)-6-methyl-1,4-dihydropyrimidine-5-carboxamido)picolinic acid], the IC50 turned out to be 4.85 µM in data set [1] (setting [13]) and 9.68 µM in data set [2] (setting [12]). Besides, the “Perm. (1 × 10^−6 cm/sec)” value in data set [3] is <1 1 × 10^−6 cm/sec. For the same compound, the “Sol.” value in data set [4] was 24.6 µg/mL. In addition, in data set [5], the “Metab. Stabil. (m)” value was >30 m.

For `CC1=C(C(=O)Nc2ccc(CO)nc2)C(c2ccccc2Cl)N=C(Nc2nc3ccccc3o2)N1` (stereo not shown) [Compound 165, 2-(benzo[d]oxazol-2-ylamino)-4-(2-chlorophenyl)-N-(6-(hydroxymethyl)pyridin-3-yl)-6-methyl-1,4-dihydropyrimidine-5-carboxamide], the IC50 worked out at 4.85 µM in data set [1] (setting [13]) and 7.69 µM in data set [2] (setting [12]). Also, in data set [3], the “Perm. (1 × 10^−6 cm/sec)” value is given as 766.1 1 × 10^−6 cm/sec. Moreover, the “Sol.” value in data set [4] is <1 µg/mL. In addition, the “Metab. Stabil. (m)” value in data set [5] is reported as >30 m.

For the compound `COC(=O)c1ccc(NC(=O)C2=C(C)NC(Nc3nc4ccccc4o3)=NC2c2ccccc2Cl)cn1` (stereo not shown) [Compound 166, methyl 5-(2-(benzo[d]oxazol-2-ylamino)-4-(2-chlorophenyl)-6-methyl-1,4-dihydropyrimidine-5-carboxamido)picolinate], the IC50 in data set [1] (setting [13]) amounted to 6.11 µM; in data set [2] (setting [12]), 6.85 µM. Also, the “Perm. (1 × 10^−6 cm/sec)” value in data set [3] was 96.1 1 × 10^−6 cm/sec. Besides, the “Sol.” value in data set [4] was <1 µg/mL. For the same compound, in data set [5], the “Metab. Stabil. (m)” value is listed as 4.678 m.
